Experiments:
Experiment in all cases: relative viability (nuclei count vs DMSO), 5 days (fraction); higher = more cells survive
FG-4592 + Pemetrexed = compound: Cc1nc(C(=O)NCC(=O)O)c(O)c2ccc(Oc3ccccc3)cc12 [FG-4592] + Nc1nc2[nH]cc(CCc3ccc(C(=O)N[C@@H](CCC(=O)O)C(=O)O)cc3)c2c(=O)[nH]1 [Pemetrexed] (partner 0.2 µM)
Summary of the method: (§1)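 Relative viability is defined as nuclei in treated wells over nuclei in vehicle wells. Duplicate plates were run and medians reported. Lung cancer cell lines in 1536-well plates were dosed by pin tool one day after seeding, with one drug or with a fixed anchor-drug dose plus five library-drug doses (not always all listed) in √10 steps, and nuclei were counted after 5 days.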

FG-4592 + Trametinib = compound: Cc1nc(C(=O)NCC(=O)O)c(O)c2ccc(Oc3ccccc3)cc12 [FG-4592] + CC(=O)Nc1cccc(-n2c(=O)n(C3CC3)c(=O)c3c(Nc4ccc(I)cc4F)n(C)c(=O)c(C)c32)c1 [Trametinib] (partner 0.02 µM)
Summary of the method: as §1

IU1-47 + Pemetrexed = compound: CC1=CC(=C(N1C2=CC=C(C=C2)Cl)C)C(=O)CN3CCCCC3 [IU1-47] + Nc1nc2[nH]cc(CCc3ccc(C(=O)N[C@@H](CCC(=O)O)C(=O)O)cc3)c2c(=O)[nH]1 [Pemetrexed] (partner 0.2 µM)
Summary of the method: as §1

FG-4592 + Foretinib = compound: Cc1nc(C(=O)NCC(=O)O)c(O)c2ccc(Oc3ccccc3)cc12 [FG-4592] + COc1cc2c(Oc3ccc(NC(=O)C4(C(=O)Nc5ccc(F)cc5)CC4)cc3F)ccnc2cc1OCCCN1CCOCC1 [Foretinib] (partner 0.25 µM)
Summary of the method: as §1

| Cell Line | relative viability (FG-4592 + Pemetrexed; first compound 0.08 µM) | relative viability (FG-4592 + Pemetrexed; first compound 0.253 µM) | relative viability (FG-4592 + Pemetrexed; first compound 2.53 µM) | relative viability (FG-4592 + Pemetrexed; first compound 8 µM) | relative viability (FG-4592 + Trametinib; first compound 0.08 µM) | relative viability (FG-4592 + Trametinib; first compound 0.253 µM) | relative viability (FG-4592 + Trametinib; first compound 2.53 µM) | relative viability (FG-4592 + Trametinib; first compound 8 µM) | relative viability (IU1-47 + Pemetrexed; first compound 0.08 µM) | relative viability (IU1-47 + Pemetrexed; first compound 0.253 µM) | relative viability (IU1-47 + Pemetrexed; first compound 0.8 µM) | relative viability (IU1-47 + Pemetrexed; first compound 2.53 µM) | relative viability (IU1-47 + Pemetrexed; first compound 8 µM) | relative viability (FG-4592 + Foretinib; first compound 0.08 µM) | relative viability (FG-4592 + Foretinib; first compound 0.253 µM) | relative viability (FG-4592 + Foretinib; first compound 0.8 µM) | relative viability (FG-4592 + Foretinib; first compound 2.53 µM) | relative viability (FG-4592 + Foretinib; first compound 8 µM) | relative viability (FG-4592 + Pemetrexed; first compound 0.8 µM) | relative viability (FG-4592 + Trametinib; first compound 0.8 µM) |
| --- | --- | --- | --- | --- | --- | --- | --- | --- | --- | --- | --- | --- | --- | --- | --- | --- | --- | --- | --- | --- |
| NCI-H522 | 1.11 | 0.878 | 0.728 | 0.869 | 0.798 | 0.712 | 0.676 | 0.873 | 0.923 | 0.975 | 1.02 | 0.735 | 0.958 | – | – | – | – | – | – | – |
| HCC-15 | 0.21 | 0.235 | 0.221 | 0.232 | 0.41 | 0.359 | 0.395 | 0.412 | 0.229 | 0.219 | 0.226 | 0.218 | 0.228 | 1.03 | 0.978 | 1.04 | 0.93 | 1.07 | 0.22 | 0.352 |
| A-427 | 0.874 | 0.96 | 0.986 | 0.902 | 0.772 | 0.724 | 0.72 | 0.723 | 1.06 | 1 | 0.993 | 1 | 0.937 | 0.98 | 1.11 | 1.03 | 0.98 | 1.18 | 0.895 | 0.677 |
| NCI-H2228 | 0.368 | 0.302 | 0.331 | 0.32 | 0.497 | 0.503 | 0.406 | 0.208 | 0.37 | 0.345 | 0.387 | 0.362 | 0.362 | 0.672 | 0.744 | 0.945 | 0.854 | 0.717 | 0.434 | 0.494 |
| NCI-H1734 | 0.407 | 0.408 | 0.422 | 0.397 | 0.719 | 0.631 | 0.733 | 0.559 | 0.454 | 0.415 | 0.446 | 0.443 | 0.463 | 0.792 | 0.812 | 0.806 | 0.884 | 0.75 | 0.419 | 0.618 |
| PC-14 | 0.128 | 0.138 | 0.131 | 0.148 | 0.708 | 0.717 | 0.833 | 0.496 | 0.169 | 0.129 | 0.171 | 0.153 | 0.144 | 1.09 | 0.997 | 1 | 0.965 | 0.987 | 0.129 | 0.71 |
| NCI-H1915 | 0.469 | 0.44 | 0.475 | 0.477 | 0.304 | 0.266 | 0.287 | 0.258 | 0.586 | 0.515 | 0.46 | 0.562 | 0.553 | 1.09 | 1.06 | 1.22 | 1.12 | 1 | 0.542 | 0.274 |
| NCI-H1666 | 0.771 | 0.836 | 0.834 | 0.722 | 0.88 | 0.856 | 0.776 | 0.711 | 0.894 | 0.839 | 0.888 | 0.873 | 0.841 | 0.907 | 0.865 | 0.939 | 0.963 | 0.837 | 0.932 | 0.922 |
| HCC-366 | 0.182 | 0.148 | 0.181 | 0.258 | 0.326 | 0.347 | 0.361 | 0.271 | 0.176 | 0.157 | 0.192 | 0.211 | 0.19 | 0.926 | 0.844 | 0.956 | 0.994 | 0.863 | 0.242 | 0.246 |
| SK-MES-1 | 0.88 | 0.833 | 0.906 | 0.917 | 0.604 | 0.515 | 0.623 | 0.571 | 0.95 | 1.05 | 0.97 | 0.993 | 0.854 | 1.09 | 0.724 | 0.779 | 0.934 | 0.836 | 0.927 | 0.521 |
| SW 1573 | 0.753 | 0.638 | 0.809 | 0.535 | 0.611 | 0.62 | 0.531 | 0.391 | 0.935 | 0.912 | 0.766 | 0.657 | 0.749 | 0.913 | 0.978 | 0.884 | 0.987 | 0.963 | 0.805 | 0.616 |
| NCI-H661 | 0.904 | 0.903 | 0.894 | 1.02 | 0.559 | 0.525 | 0.554 | 0.525 | 0.925 | 0.961 | 0.977 | 0.925 | 0.947 | 1.06 | 0.956 | 1.09 | 0.987 | 0.938 | 0.944 | 0.536 |
| PC-3 [JPC-3] | 1.09 | 1.02 | 1.19 | 1.05 | 0.773 | 0.601 | 0.72 | 0.844 | 1.13 | 1.12 | 1.04 | 0.774 | 1.07 | 1.09 | 0.937 | 1.06 | 1.04 | 1.02 | – | – |
| NCI-H1623 | – | – | – | – | – | – | – | – | – | – | – | – | – | 0.825 | 0.846 | 0.795 | 0.731 | 0.724 | – | – |
| Calu-6 | – | – | – | – | – | – | – | – | – | – | – | – | – | 0.907 | 0.887 | 0.966 | 0.924 | 0.758 | – | – |
